{"source": "patent US20230414700A1", "about": "“TG2 INHIBITORS FOR IMPROVING MUCOCILIARY CLEARANCE IN RESPIRATORY DISEASES” (INSERM (INSTITUT NATIONAL DE LA SANTÉ ET DE LA RECHERCHE …, priority 2020, published 2023)", "key": {"[1]": {"system": "IL-13-stimulated hypersecretory epithelia", "experiment": "Mucociliary clearance by video microscopy using fluorescent microspheres", "type": "cell-based", "conditions": "30-second image sequence, n=2", "protocol": "The final image from a 30-second image sequence (every 5 ms) is shown (ImageJ, Z Project). B: Quantification of travelled distance (ImageJ, Plugin MTrack3). Median values are shown. n=2.\n(§1) Methods: The bronchial epithelium from asthmatic patients, cystic fibrosis or control subjects was reconstituted in vitro by culturing cells at the air-liquid interface. Hyper secretory differentiation was modeled by exposing control bronchial epithelial to IL-13. Expression of TG2 and MUC5AC was assessed by RT-qPCR and immunohistochemistry/immunofluorescence. Mucin modification by TG2 was evaluated by BAP incorporation and Western-blot analysis. Mucus tethering to the apical surface was studied by detecting MUC5AC after extensive apical washes with PBS. The role of TG2 was evaluated using the pharmacological inhibitor ZDON. Mucociliary clearance was evaluated by video microscopy using fluorescent microspheres."}, "[2]": {"system": "ALI-regenerated hypersecretory epithelia", "experiment": "Mucus (MUC5AC) tethering to the apical surface after extensive apical washes with PBS, immunofluorescence", "type": "cell-based", "conditions": "IL-13-induced hypersecretory bronchial epithelium reconstituted in vitro at air-liquid interface; n=2", "text": "Whole-mount images represent stacks from optical sections done through the mucus (parallel to the plane of the epithelium). epi, epithelium. Extracellular mucus was quantified after beta-tubulin staining to delineate cell apex, and expressed as sum intensities (in […]) (n=2).\nas §1"}}, "note": "“Also recorded” adds a separate entry of the source. Square brackets hold non-standard residues; d marks the D form. Peptide text beside a SMILES is read from it. * marks the point of attachment. ξ: configuration not given here. DON = [N-]=[N+]=CC(=O)CC[C@H](N)C(=O)O; Ile(3ξ) = CCC(C)[C@H](N)C(=O)O; Cbz = O=C(OCc1ccccc1)*", "data": [{"smiles": "CCC(C)[C@H](NC(=O)[C@H](CCC(N)=O)NC(=O)[C@H](CCC(=O)C=[N+]=[N-])NC(=O)OCc1ccccc1)C(=O)N[C@H](C(=O)OC)C(C)C", "note": "(some centres unmarked) [ZDON] (Cbz-[DON]Q[Ile(3ξ)]V-OMe)", "values": [{"measurement": "Mucociliary clearance (travelled distance of fluorescent microspheres)", "setting": "[1]", "value": "tends to ameliorate mucociliary clearance"}, {"measurement": "MUC5AC tethering to the apical surface of hypersecretory epithelia", "setting": "[2]", "value": "decreases MUC5AC tethering; also recorded: blocked"}]}]}
